# Experiments:
# Drosophila [1] = type: in vivo, Drosophila melanogaster
# Protocol: In order to monitor fly behavior, five-day old virgin female Canton-S Drosophila melanogaster were cultured at 25° C., 50-60% humidity, 12 hr:12 hr light:dark cycle, on brewer's yeast, dark corn syrup and agar food, following procedures modified from J. Bennett and D. L. van Dyke, Dros. Inform. Serv. 46:160 (1971). Continuous, high-resolution measurement of fly behavior was achieved using an ultrasound activity monitoring system shown in FIG. 1A. Briefly, a 44 kHz standing wave was passed across an independent enclosure containing a single fly. An integrated circuit sampled a portion of each wave as a function of the transmit signal and compared it to the output from the receive signal for the same time-window. When the fly moved its mass within the field, it perturbed the standing wave and the resulting difference was counted as a movement. The output was sampled by a PC at 200 Hz, the data were summed in 2-sec bins and stored for later processing. This system detects very small movements in Drosophila's behavioral repertoire, including fine movements of the head, wings, and limbs.
# To monitor rest-activity patterns in large numbers of flies, an infrared Drosophila Activity Monitoring System was used (Trikinetics; described in M. Hamblen et al., J. Neurogen. 3:249 (1986)). To validate the system, flies were visually monitored for a total of 17.75 h (n=7). The number of times the fly crossed the infrared beam was counted in 5-minute bins.
# Drugs (caffeine or hydroxyzine) dissolved in food were continuously available to flies beginning in the final hour of the light period.
# The increase in rest was not associated with a general impairment of fly behavior. The activity per waking minute was unchanged during the dark period (both during the first hour and the subsequent hours). The total amount of activity during the light period was also unchanged. Furthermore, responsiveness to arousing stimuli was preserved.
# Drosophila [2] = experiment: Responsiveness to arousing stimuli in flies given drug; design: species or system Drosophila melanogaster; details: in vivo
# Protocol: In order to determine whether periods of rest are associated with increased arousal thresholds, flies were subjected to vibratory stimuli of increasing intensity (0.05 g, 0.1 g, and 6 g). In these experiments, flies were placed in glass tubes (65 mm in length, 5 mm I.D.) maintained on a hard plastic platform above a Grass speaker. The output of the speaker was controlled via a Beckman signal generator and the resulting vibration of the platform was measured with an accelerometer. Each fly received a stimulus each hour (total of 8 stimuli) of constant intensity. The behavioral state at the time of stimulus delivery and the ensuing response were videotaped and scored off-line.
# Drosophila [3] = experiment: Grooming control for validating the infrared system: dusting flies; type: in vivo, Drosophila melanogaster; details: flies dusted with the substance
# Protocol: Additional controls were used to validate the infrared system. […] It was determined that food deprivation for 1 day increased waking by 50% in Drosophila.
molecule,measurement,setting,value
Cn1c(=O)c2c(ncn2C)n(C)c1=O [caffeine],motor activity,"Drosophila [1]; drug in food from the final hour of the light period, n=36/dose",increased
same,amount of rest during the dark period,"Drosophila [1]; drug in food from the final hour of the light period, n=36/dose, p<0.0001, FIG. 3C",decreased in a dose-dependent fashion
OCCOCCN1CCN(C(c2ccccc2)c2ccc(Cl)cc2)CC1 (centres unmarked) [hydroxyzine],responsiveness to arousing stimuli,Drosophila [2],preserved
same,rest during the first hour of the dark period,"Drosophila [1]; drug in food from the final hour of the light period, n=40/dose, FIG. 3D",increased in a dose-dependent manner
same,latency to first dark period rest,"Drosophila [1]; drug in food from the final hour of the light period, n=40/dose, FIG. 3E",decreased
same,total amount of activity during the light period,Drosophila [1]; in vivo,unchanged
Reactive Yellow,increase in grooming behavior,Drosophila [3],72%
same,number of infrared crossings,Drosophila [3],did not reduce

# Reference: patent publication US20020042054A1, “Vigilance nucleic acids and related diagnostic, screening and therapeutic methods” (priority 1999, published 2002)
